Measurements as given in patent publication US20250171467A1, “FUSED PYRAZOLE AMIDE ANALOGS AS GLUCOSYLCERAMIDE SYNTHASE INHIBITORS” (Merck Sharp & Dohme LLC, priority 2022, published 2025).

Target: glucosylceramide synthase (GCS) (Homo sapiens (Human), UniProt Q16739)
Assay: UDP-Glo glucosylceramide synthase biochemical assay
Settings: endogenous GCS in Golgi preparations from human A375 malignant melanoma skin cells; C6 ceramide and UDP-glucose substrates; 20 h incubation at room temperature; UDP detected by luminescence
From the text: A UDP-Glo™ glucosylceramide synthase biochemical assay was utilized to evaluate the effect of test compounds on the activity of endogenous levels of GCS enzyme contained within Golgi preparations isolated from human A375 malignant melanoma skin cells. The UDP-Glo™ glucosylceramide synthase assay uses UDP-Glucose as a nucleotide-glycosyl donor and ceramide as substrate acceptor molecules. In the reaction, glucosylceramide synthase (GCS) transfers glucose from UDP-Glucose to ceramide. Glucosylceramide and UDP are released as products.
Using Promega's UDP-Glo™ Glycosyltransferase assay kit (Promega Corporation, Madison, WI, USA (Promega)), GCS activity was indirectly measured by detecting the amount of UDP produced. An aliquot of GCS enzyme (1.5 μg crude golgi preparation, total protein) and titrated test compound were aliquoted to each well and incubated for 30 minutes at room temperature. […] An equivalent volume of substrate mixture was then added to each well. Following a 20 h incubation at room temperature to allow for GCS turnover of substrate, an equal volume of UDP detection reagent (Promega) was added to each well and incubated for an additional 75 minutes at room temperature to simultaneously convert the accumulated UDP product into ATP and generate light in a luciferase reaction. The generated light was detected using a luminometer. […] luminescence values (RLUs) were normalized to mean “min” and “max” effects, as determined on each plate. […] Values for % Emax and EC50 were determined by best-fitting the normalized data to a curve in Activity Base along a four-parameter logistic nonlinear regression (4PL) model (based on the Levenberg-Marquardt algorithm and defined by the equation below): […]
where: n is 4PMin (bottom of the curve); m is 4PMax (top of the curve); i is IP (inflection point of curve); and p is slope. See Levenberg, K., “A Method for the Solution of Certain Problems in Least Squares”, Quart. Appl. Math. 2, (1944), pp 164-168 and Marquardt, D., “An Algorithm for Least Squares Estimation on Nonlinear Parameters”, SIAM J. Appl. Math. 11, (1963) pp 431-441.

Chain of glucosylceramide synthase (GCS) (Q16739 whole entry): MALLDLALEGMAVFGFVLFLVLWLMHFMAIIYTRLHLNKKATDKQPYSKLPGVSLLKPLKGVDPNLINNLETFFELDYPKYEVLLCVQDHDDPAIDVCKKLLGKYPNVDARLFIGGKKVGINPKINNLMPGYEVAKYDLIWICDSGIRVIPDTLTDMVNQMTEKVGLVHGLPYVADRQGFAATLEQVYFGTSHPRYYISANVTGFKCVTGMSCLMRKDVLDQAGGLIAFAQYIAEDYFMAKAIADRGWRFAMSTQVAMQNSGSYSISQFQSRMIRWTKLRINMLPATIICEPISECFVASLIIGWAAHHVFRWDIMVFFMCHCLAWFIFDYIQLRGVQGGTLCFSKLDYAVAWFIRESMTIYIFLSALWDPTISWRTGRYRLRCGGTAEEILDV

| SMILES | EC50 [nM] |
| --- | --- |
| COc1ccc(-n2nc(C(=O)N3CCCNCC3C)c3c2CCOC3)cc1 (racemic) [Compound 7, Racemic-[1-(4-methoxyphenyl)-1,4,6,7-tetrahydropyrano[4,3-c]pyrazol-3-yl]-(2-methyl-1,4-diazepan-1-yl)methanone] | 250 |
| COc1ccc(-n2nc(C(=O)N3CCN4CCC3C4)c3c2CCOC3)cc1 (racemic) [Compound 10, Racemic-1,4-diazabicyclo[3.2.1]octan-4-yl-[1-(4-methoxyphenyl)-1,4,6,7-tetrahydropyrano[4,3-c]pyrazol-3-yl]methanone] | 180 |
| COc1ccc(-n2nc(C(=O)N3CCC4CCC(C3)N4)c3c2CCOC3)cc1 (racemic) [Compound 12, Racemic-3,9-diazabicyclo[4.2.1]nonan-3-yl-[1-(4-methoxyphenyl)-1,4,6,7-tetrahydropyrano[4,3-c]pyrazol-3-yl]methanone] | 840 |
| COc1ccc(-n2nc(C(=O)N3CCNCC(F)C3)c3c2CCOC3)cc1 (racemic) [Compound 13, Racemic-(6-fluoro-1,4-diazepan-1-yl)-[1-(4-methoxyphenyl)-1,4,6,7-tetrahydropyrano[4,3-c]pyrazol-3-yl]methanone] | 2500 |
| COc1ccc(-n2nc(C(=O)N3CCN4CCC3C(F)(F)C4)c3c2CCOC3)cc1 (single isomer, unassigned) [Compound 2, [(5˜{R or S})-6,6-difluoro-1,4-diazabicyclo[3.2.2]nonan-4-yl]-[1-(4-methoxyphenyl)-1,4,6,7-tetrahydropyrano[4,3-c]pyrazol-3-yl]methanone] | 7700 |
| COc1ccc(-n2nc(C(=O)N3CCN4CCC3C(F)(F)C4)c3c2CCOC3)cc1 (single isomer, unassigned) [Compound 3, [(5˜{S or R})-6,6-difluoro-1,4-diazabicyclo[3.2.2]nonan-4-yl]-[1-(4-methoxyphenyl)-1,4,6,7-tetrahydropyrano[4,3-c]pyrazol-3-yl]methanone] | 1400 |
| COc1ccc(-n2nc(C(=O)N3CCN4CCC3C(F)(F)C4)c3c2CCC3)cc1C(F)(F)F (single isomer, unassigned) [Compound 22, [R or S]-(6,6-difluoro-1,4-diazabicyclo[3.2.2]nonan-4-yl)-[1-[4-methoxy-3-(trifluoromethyl)phenyl]-1,4,5,6-tetrahydrocyclopenta[c]pyrazol-3-yl]methanone] | 16 |
| COc1ccc(-n2nc(C(=O)N3CC[N@@]4CCC3C(F)(F)C4)c3c2CCC3)cc1C(F)(F)F (single isomer, unassigned) [Compound 23, [S or R]-(6,6-difluoro-1,4-diazabicyclo[3.2.2]nonan-4-yl)-[1-[4-methoxy-3-(trifluoromethyl)phenyl]-1,4,5,6-tetrahydrocyclopenta[c]pyrazol-3-yl]methanone] | 66 |
| COc1ccc(-n2nc(C(=O)N3CCCN(C)CC3)c3c2CCOC3)cc1 [Compound 4, [1-(4-methoxyphenyl)-1,4,6,7-tetrahydropyrano[4,3-c]pyrazol-3-yl]-(4-methyl-1,4-diazepan-1-yl)methanone] | 940 |
| O=C(c1nn(-c2ccc(OC(F)F)cc2)c2c1COCC2)N1CCN2CCC1CC2 [Compound 5, 1,4-diazabicyclo[3.2.2]nonan-4-yl-[1-[4-(difluoromethoxy)phenyl]-1,4,6,7-tetrahydropyrano[4,3-c]pyrazol-3-yl]methanone] | 29 |
| COc1ccc(-n2nc(C(=O)N3CCCNCC3)c3c2CCOC3)cc1 [Compound 6, 1,4-diazepan-1-yl-[1-(4-methoxyphenyl)-1,4,6,7-tetrahydropyrano[4,3-c]pyrazol-3-yl]methanone] | 360 |
| COc1ccc(-n2nc(C(=O)N3CCNCC4(CC4)C3)c3c2CCOC3)cc1 [Compound 8, 5,8-diazaspiro[2.6]nonan-8-yl-[1-(4-methoxyphenyl)-1,4,6,7-tetrahydropyrano[4,3-c]pyrazol-3-yl]methanone] | 1200 |
| COc1ccc(-n2nc(C(=O)N3CCCN(C)CC3)c3c2CCOC3)cc1C(F)(F)F [Compound 14, [1-[4-methoxy-3-(trifluoromethyl)phenyl]-1,4,6,7-tetrahydropyrano[4,3-c]pyrazol-3-yl]-(4-methyl-1,4-diazepan-1-yl)methanone] | 320 |
| COc1ccc(-n2nc(C(=O)N3CCCN(C)CC3)c3c2CCOC3)cc1F [Compound 15, [1-(3-fluoro-4-methoxyphenyl)-1,4,6,7-tetrahydropyrano[4,3-c]pyrazol-3-yl]-(4-methyl-1,4-diazepan-1-yl)methanone] | 730 |
| COc1ccc(-n2nc(C(=O)N3CCN4CCC3CC4)c3c2CCOC3)cc1Cl [Compound 16, [1-(3-chloro-4-methoxyphenyl)-1,4,6,7-tetrahydropyrano[4,3-c]pyrazol-3-yl]-(1,4-diazabicyclo[3.2.2]nonan-4-yl)methanone] | 2.2 |
| COc1ccc(-n2nc(C(=O)N3CCN4CCC3CC4)c3c2CCC3)cc1 [Compound 17, 1,4-diazabicyclo[3.2.2]nonan-4-yl-[1-(4-methoxyphenyl)-1,4,5,6-tetrahydrocyclopenta[c]pyrazol-3-yl]methanone] | 1.7 |
| COc1ccc(-n2nc(C(=O)N3CCN4CCC3CC4)c3c2CCC3)cc1F [Compound 18, 1,4-diazabicyclo[3.2.2]nonan-4-yl-[1-(3-fluoro-4-methoxyphenyl)-1,4,5,6-tetrahydrocyclopenta[c]pyrazol-3-yl]methanone] | 0.9 |
| COc1ccc(-n2nc(C(=O)N3CCN4CCC3CC4)c3c2CCC3)cc1Cl [Compound 19, [1-(3-chloro-4-methoxyphenyl)-1,4,5,6-tetrahydrocyclopenta[c]pyrazol-3-yl]-(1,4-diazabicyclo[3.2.2]nonan-4-yl)methanone] | 0.3 |
| COc1ccc(-n2nc(C(=O)N3CCN4CCC3CC4)c3c2CCC3)cc1C [Compound 20, 1,4-diazabicyclo[3.2.2]nonan-4-yl-[1-(4-methoxy-3-methylphenyl)-1,4,5,6-tetrahydrocyclopenta[c]pyrazol-3-yl]methanone] | 0.4 |
| COc1ccc(-n2nc(C(=O)N3CCN4CCC3CC4)c3c2CCC3)cc1C(F)(F)F [Compound 21, 1,4-diazabicyclo[3.2.2]nonan-4-yl-[1-[4-methoxy-3-(trifluoromethyl)phenyl]-1,4,5,6-tetrahydrocyclopenta[c]pyrazol-3-yl]methanone] | 0.1 |
| O=C(c1nn(-c2ccc(Cl)c(Cl)c2)c2c1CCC2)N1CCN2CCC1CC2 [Compound 24, 1,4-diazabicyclo[3.2.2]nonan-4-yl-[1-(3,4-dichlorophenyl)-1,4,5,6-tetrahydrocyclopenta[c]pyrazol-3-yl]methanone] | 0.1 |
| O=C(c1nn(-c2ccc(F)c(Cl)c2)c2c1CCC2)N1CCN2CCC1CC2 [Compound 25, [1-(3-chloro-4-fluorophenyl)-1,4,5,6-tetrahydrocyclopenta[c]pyrazol-3-yl]-(1,4-diazabicyclo[3.2.2]nonan-4-yl)methanone] | 1.3 |
| O=C(c1nn(-c2cccc(Cl)c2)c2c1CCC2)N1CCN2CCC1CC2 [Compound 26, [1-(3-chlorophenyl)-1,4,5,6-tetrahydrocyclopenta[c]pyrazol-3-yl]-(1,4-diazabicyclo[3.2.2]nonan-4-yl)methanone] | 1.5 |
| Cc1ccc(-n2nc(C(=O)N3CCN4CCC3CC4)c3c2CCC3)cc1Cl [Compound 27, [1-(3-chloro-4-methylphenyl)-1,4,5,6-tetrahydrocyclopenta[c]pyrazol-3-yl]-(1,4-diazabicyclo[3.2.2]nonan-4-yl)methanone] | 0.3 |
| O=C(c1nn(-c2ccc(OC(F)F)c(Cl)c2)c2c1CCC2)N1CCN2CCC1CC2 [Compound 28, [1-[3-chloro-4-(difluoromethoxy)phenyl]-1,4,5,6-tetrahydrocyclopenta[c]pyrazol-3-yl]-(1,4-diazabicyclo[3.2.2]nonan-4-yl)methanone] | 1.3 |
